US9049864B2, “Pyridazinone herbicidal compounds” (Syngenta Limited, priority 2012, dated 2015)

Tests used:
Test in all cases: Post-emergence herbicidal glasshouse test, percentage damage to the plant
Type in all cases: in vivo
[1] = tested on: Alopecurus myosuroides (ALOMY)
Procedure, shortened: (§1)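 Activity appears as a score from 1 (0-19% damage) to 5 (80-100%), assessed 13 days after a post-emergence spray of 8-day-old plants. Comparative runs used 250, 500 and 1000 g/ha; the standard rate was 1000 g/ha, formulated in acetone/water (50:50) with 0.5% Tween 20.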

[2] = tested on: Amaranthus retoflexus (AMARE)
Procedure, shortened: as §1

[3] = tested on: Echinochloa crus-galli (ECHCG)
Procedure, shortened: as §1

[4] = tested on: Ipomoea hederacea (IPOHE)
Procedure, shortened: as §1

[5] = tested on: Setaria faberi (SETFA)
Procedure, shortened: as §1

[6] = tested on: Solanum nigrum (SOLNI)
Procedure, shortened: as §1

[7] = post-emergence, 1000 g/ha, evaluated after 13 days
[8] = comparative experiment, rate 250 g/ha
[9] = comparative experiment, rate 500 g/ha
[10] = comparative experiment, rate 1000 g/ha

Row | SMILES | POST Application ALOMY, percentage damage (five point scale) [1, 7] | POST Application AMARE, percentage damage (five point scale) [2, 7] | POST Application ECHCG, percentage damage (five point scale) [3, 7] | POST Application IPOHE, percentage damage (five point scale) [4, 7] | POST Application SETFA, percentage damage (five point scale) [5, 7] | POST Application SOLNI, percentage damage (five point scale) [6, 7] | further results
1 | Cc1nn(C)c(=O)c(-n2c(Cl)c(Cl)c3ccccc32)c1OC(=O)C(C)(C)C [Compound 3.008] | 2 (2=20-39%) | 5 (5=80-100%) | 3 (3=40-59%) | 5 (5=80-100%) | 1 (1=0-19%) | 5 (5=80-100%) | –
2 | Cc1nn(C)c(=O)c(-n2c(Cl)c(Cl)c3ccccc32)c1OC(=O)c1ccc([N+](=O)[O-])cc1 [Compound 3.009] | 1 (1=0-19%) | 5 (5=80-100%) | 1 (1=0-19%) | 5 (5=80-100%) | 1 (1=0-19%) | 5 (5=80-100%) | –
3 | Cc1nn(C)c(=O)c(-n2c(Cl)c(Cl)c3ccccc32)c1OC(=O)OCC(C)C [Compound 3.010] | 1 (1=0-19%) | 5 (5=80-100%) | 3 (3=40-59%) | 5 (5=80-100%) | 1 (1=0-19%) | 5 (5=80-100%) | –
4 | Cc1nn(C)c(=O)c(-n2c(Cl)c(Cl)c3ccccc32)c1OC(=O)OC(C)C [Compound 3.011] | 1 (1=0-19%) | 5 (5=80-100%) | 4 (4=60-79%) | 5 (5=80-100%) | 2 (2=20-39%) | 5 (5=80-100%) | –
5 | CC1=NN(C)C(=O)C(n2c(C)cc3ccccc32)C1=O (stereo not drawn) [Compound 4.026] | 2 (2=20-39%) | 4 (4=60-79%) | 2 (2=20-39%) | 5 (5=80-100%) | 3 (3=40-59%) | 5 (5=80-100%) | –
6 | CC1=NN(C)C(=O)C(n2c(C)c(Cl)c3ccccc32)C1=O (stereo not drawn) [Compound 4.027] | 3 (3=40-59%) | 5 (5=80-100%) | 5 (5=80-100%) | 5 (5=80-100%) | 4 (4=60-79%) | 5 (5=80-100%) | –
7 | CC1=NN(C)C(=O)C(n2nc(C(F)(F)F)cc2C)C1=O (stereo not drawn) [Compound A, reference compound] | – | – | – | – | – | – | POST Application ALOMY, percentage damage (five point scale) [1, 8]: 1 (1=0-19%); POST Application ALOMY, percentage damage (five point scale) [1, 9]: 1 (1=0-19%); POST Application ALOMY, percentage damage (five point scale) [1, 10]: 2 (2=20-39%); POST Application AMARE, percentage damage (five point scale) [2, 8]: 3 (3=40-59%); POST Application AMARE, percentage damage (five point scale) [2, 9]: 4 (4=60-79%); POST Application AMARE, percentage damage (five point scale) [2, 10]: 4 (4=60-79%); POST Application ECHCG, percentage damage (five point scale) [3, 8]: 1 (1=0-19%); POST Application ECHCG, percentage damage (five point scale) [3, 9]: 2 (2=20-39%); POST Application ECHCG, percentage damage (five point scale) [3, 10]: 3 (3=40-59%); POST Application IPOHE, percentage damage (five point scale) [4, 8]: 4 (4=60-79%); POST Application IPOHE, percentage damage (five point scale) [4, 9]: 5 (5=80-100%); POST Application IPOHE, percentage damage (five point scale) [4, 10]: 5 (5=80-100%); POST Application SETFA, percentage damage (five point scale) [5, 8]: 1 (1=0-19%); POST Application SETFA, percentage damage (five point scale) [5, 9]: 1 (1=0-19%); POST Application SETFA, percentage damage (five point scale) [5, 10]: 2 (2=20-39%); POST Application SOLNI, percentage damage (five point scale) [6, 8]: 3 (3=40-59%); POST Application SOLNI, percentage damage (five point scale) [6, 9]: 4 (4=60-79%); POST Application SOLNI, percentage damage (five point scale) [6, 10]: 5 (5=80-100%)
8 | Cc1cc(Cl)nn1C1C(=O)C=NN(C)C1=O (stereo not drawn) [Compound B, reference compound] | – | – | – | – | – | – | POST Application ALOMY, percentage damage (five point scale) [1, 8]: 1 (1=0-19%); POST Application ALOMY, percentage damage (five point scale) [1, 9]: 1 (1=0-19%); POST Application ALOMY, percentage damage (five point scale) [1, 10]: 2 (2=20-39%); POST Application AMARE, percentage damage (five point scale) [2, 8]: 2 (2=20-39%); POST Application AMARE, percentage damage (five point scale) [2, 9]: 3 (3=40-59%); POST Application AMARE, percentage damage (five point scale) [2, 10]: 4 (4=60-79%); POST Application ECHCG, percentage damage (five point scale) [3, 8]: 1 (1=0-19%); POST Application ECHCG, percentage damage (five point scale) [3, 9]: 1 (1=0-19%); POST Application ECHCG, percentage damage (five point scale) [3, 10]: 2 (2=20-39%); POST Application IPOHE, percentage damage (five point scale) [4, 8]: 1 (1=0-19%); POST Application IPOHE, percentage damage (five point scale) [4, 9]: 2 (2=20-39%); POST Application IPOHE, percentage damage (five point scale) [4, 10]: 5 (5=80-100%); POST Application SETFA, percentage damage (five point scale) [5, 8]: 1 (1=0-19%); POST Application SETFA, percentage damage (five point scale) [5, 9]: 1 (1=0-19%); POST Application SETFA, percentage damage (five point scale) [5, 10]: 1 (1=0-19%); POST Application SOLNI, percentage damage (five point scale) [6, 8]: 2 (2=20-39%); POST Application SOLNI, percentage damage (five point scale) [6, 9]: 3 (3=40-59%); POST Application SOLNI, percentage damage (five point scale) [6, 10]: 4 (4=60-79%)
